# Source: ChEMBL document CHEMBL1287766, “Discovery of N-benzyl-N'-(4-pipyridinyl)urea CCR5 antagonists as anti-HIV-1 agents (II): modification of the acyl portion” (Bioorg Med Chem Lett, 2010)
# Legend:
# [1] = system: Human immunodeficiency virus 1; test: Antiviral activity against HIV1 BaL in human HOS cells; type: functional, organism-based; settings: Human immunodeficiency virus 1, BaL
# HOS = test: Cytotoxicity against human HOS cells up to 1 uM; type: cell-based
# [2] = Clearance in Sprague-Dawley rat at 1 mg/kg; type: ADME, organism-based; design: dose 1 mg/kg; settings: in vivo
# [3] = system: Human immunodeficiency virus 1; test: Antiviral activity against HIV1 BaL in human PBL cells; type: functional, organism-based; settings: Human immunodeficiency virus 1, BaL
# PBL = test: Cytotoxicity against human PBL cells up to 1 uM; type: cell-based
# [4] = Oral bioavailability in Sprague-Dawley rat at 1 mg/kg; type: ADME, organism-based; settings: in vivo
# [5] = Apparent permeability across MDCK cells at pH 7.05; type: ADME, cell-based, Canis lupus familiaris; settings: dog
# [6] = Half life in Sprague-Dawley rat at 1 mg/kg; type: ADME, organism-based; design: dose 1 mg/kg; settings: in vivo
# Cytochrome P450 3A4 = Cytochrome P450 3A4 (Homo sapiens, UniProt P08684); test: Inhibition of CYP3A4; type: ADME
# Cytochrome P450 3A4, sequence (P08684 whole entry): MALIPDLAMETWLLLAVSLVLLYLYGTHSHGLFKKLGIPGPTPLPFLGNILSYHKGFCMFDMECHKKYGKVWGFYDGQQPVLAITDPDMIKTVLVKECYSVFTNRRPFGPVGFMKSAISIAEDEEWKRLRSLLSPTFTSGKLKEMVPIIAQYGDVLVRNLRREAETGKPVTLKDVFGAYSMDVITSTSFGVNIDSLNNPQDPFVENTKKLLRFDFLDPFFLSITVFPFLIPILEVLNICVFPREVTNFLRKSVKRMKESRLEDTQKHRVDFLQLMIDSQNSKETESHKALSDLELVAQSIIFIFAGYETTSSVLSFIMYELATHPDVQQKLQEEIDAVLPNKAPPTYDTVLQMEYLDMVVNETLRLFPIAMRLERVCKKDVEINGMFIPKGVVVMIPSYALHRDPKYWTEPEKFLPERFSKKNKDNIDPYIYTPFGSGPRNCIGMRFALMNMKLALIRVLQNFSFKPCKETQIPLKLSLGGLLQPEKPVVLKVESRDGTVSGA
Compound,IC50 [1],Activity (HOS),clearance [2],IC50 [3],Activity (PBL),bioavailability [4],Papp [5],half-life [6],inhibition (INH) (Cytochrome P450 3A4)
CC(C)(C)NS(=O)(=O)c1ccc(Cl)c(C(=O)N2CCC(CCN3CCC(N(C(=O)NCc4ccc(C#N)cc4)c4cccc(F)c4)CC3)(c3cccc(F)c3)CC2)c1Cl,3 nM,Non-toxic,9 mL/min/kg,0.8 nM,Non-toxic,10%,,,
N#Cc1ccc(CNC(=O)N(c2cccc(F)c2)C2CCN(CCC3(c4cccc(F)c4)CCN(C(=O)c4cc(S(=O)(=O)N5CC[C@H](O)C5)c(F)cc4Cl)CC3)CC2)cc1,1.5 nM,Non-toxic,24 mL/min/kg,0.5 nM,Non-toxic,8%,,,
N#Cc1ccc(CNC(=O)N(c2cccc(F)c2)C2CCN(CCC3(c4cccc(F)c4)CCN(C(=O)c4cc(S(=O)(=O)N5CCCC5)c(F)cc4Cl)CC3)CC2)cc1,1.5 nM,Non-toxic,9.5 mL/min/kg,0.6 nM,Non-toxic,9%,,,
N#Cc1ccc(CNC(=O)N(c2cccc(F)c2)C2CCN(CCC3(c4cccc(F)c4)CCN(C(=O)c4cc(S(=O)(=O)N5CC[C@H](O)C5)c(F)cc4F)CC3)CC2)cc1,1.3 nM,Non-toxic,43 mL/min/kg,,Non-toxic,0%,,,
N#Cc1ccc(CNC(=O)N(c2cccc(F)c2)C2CCN(CCC3(c4cccc(F)c4)CCN(C(=O)c4cc(S(=O)(=O)N5CCCC5)c(F)cc4F)CC3)CC2)cc1,0.9 nM,Non-toxic,29 mL/min/kg,0.6 nM,Non-toxic,10%,,,
N#Cc1ccc(CNC(=O)N(c2cccc(F)c2)C2CCN(CCC3(c4cccc(F)c4)CCN(C(=O)c4cc(S(N)(=O)=O)c(F)cc4F)CC3)CC2)cc1,4 nM,Non-toxic,31 mL/min/kg,5.2 nM,Non-toxic,,< 0.3 ×10⁻⁶ cm/s,,
N#Cc1ccc(CNC(=O)N(c2cccc(F)c2)C2CCN(CCC3(c4cccc(F)c4)CCN(C(=O)c4cc(S(N)(=O)=O)c(F)cc4Cl)CC3)CC2)cc1,6.8 nM,Non-toxic,9.7 mL/min/kg,0.9 nM,Non-toxic,,< 0.3 ×10⁻⁶ cm/s,,
N#Cc1ccc(CNC(=O)N(c2cccc(F)c2)C2CCN(CCC3(c4cccc(F)c4)CCN(C(=O)c4c(Cl)ccc(S(N)(=O)=O)c4Cl)CC3)CC2)cc1,5.7 nM,Non-toxic,16 mL/min/kg,2.8 nM,Non-toxic,,< 0.3 ×10⁻⁶ cm/s,,
N#Cc1ccc(CNC(=O)N(c2cccc(F)c2)C2CCN(CCC3(c4cccc(F)c4)CCN(C(=O)c4c(F)ccc(S(N)(=O)=O)c4F)CC3)CC2)cc1,6.6 nM,Non-toxic,25 mL/min/kg,2 nM,Non-toxic,,,,
N#Cc1ccc(CNC(=O)N(c2cccc(F)c2)C2CCN(CCC3(c4cccc(F)c4)CCN(C(=O)c4c(Cl)cncc4Cl)CC3)CC2)cc1,2.7 nM,Non-toxic,24 mL/min/kg,4.8 nM,Non-toxic,50%,,4.9 h,Active
N#Cc1ccc(CNC(=O)N(c2cccc(F)c2)C2CCN(CCC3(c4cccc(F)c4)CCN(C(=O)c4ccnc(Cl)c4)CC3)CC2)cc1,19 nM,Non-toxic,14.6 mL/min/kg,13 nM,Non-toxic,64%,,5.8 h,Active
N#Cc1ccc(CNC(=O)N(c2cccc(F)c2)C2CCN(CCC3(c4cccc(F)c4)CCN(C(=O)c4cccnc4F)CC3)CC2)cc1,6.4 nM,Non-toxic,22.5 mL/min/kg,6.1 nM,Non-toxic,60%,,3.4 h,Active
Cn1cc(Cl)c(C(=O)N2CCC(CCN3CCC(N(C(=O)NCc4ccc(C#N)cc4)c4cccc(F)c4)CC3)(c3cccc(F)c3)CC2)n1,17 nM,Non-toxic,25 mL/min/kg,22 nM,Non-toxic,11%,,2.6 h,Active
N#Cc1ccc(CNC(=O)N(c2cccc(F)c2)C2CCN(CCC3(c4cccc(F)c4)CCN(C(=O)c4cn[nH]c4C(F)(F)F)CC3)CC2)cc1,8.2 nM,Non-toxic,13 mL/min/kg,,Non-toxic,3%,,7.2 h,Active
N#Cc1ccc(CNC(=O)N(c2cccc(F)c2)C2CCN(CCC3(c4cccc(F)c4)CCN(C(=O)c4nsnc4O)CC3)CC2)cc1,1.1 nM,Non-toxic,124 mL/min/kg,41 nM,Non-toxic,0%,,,Active
CC(C)(C)C(=O)N1CCC(CCN2CCC(N(C(=O)NCc3ccc(C#N)cc3)c3cccc(F)c3)CC2)(c2cccc(F)c2)CC1,11 nM,Non-toxic,10 mL/min/kg,5.3 nM,Non-toxic,11%,,2.4 h,
CC(C)(CO)C(=O)N1CCC(CCN2CCC(N(C(=O)NCc3ccc(C#N)cc3)c3cccc(F)c3)CC2)(c2cccc(F)c2)CC1,19 nM,Non-toxic,22 mL/min/kg,20 nM,Non-toxic,63%,,2.6 h,
CC(CO)(CO)C(=O)N1CCC(CCN2CCC(N(C(=O)NCc3ccc(C#N)cc3)c3cccc(F)c3)CC2)(c2cccc(F)c2)CC1,22 nM,Non-toxic,26 mL/min/kg,,Non-toxic,7%,,4.4 h,
N#Cc1ccc(CNC(=O)N(c2cccc(F)c2)C2CCN(CCC3(c4cccc(F)c4)CCN(C(=O)C4CCOCC4)CC3)CC2)cc1,17 nM,Non-toxic,25 mL/min/kg,22 nM,Non-toxic,11%,,2.6 h,
CC(C)(C#N)C(=O)N1CCC(CCN2CCC(N(C(=O)NCc3ccc(C#N)cc3)c3cccc(F)c3)CC2)(c2cccc(F)c2)CC1,6.4 nM,Non-toxic,12 mL/min/kg,49 nM,Non-toxic,28%,,4.3 h,
